Source: publication PMC10480161, “Identification of potent and selective N-myristoyltransferase inhibitors of Plasmodium vivax liver stage hypnozoites and schizonts” (Nature Communications, 2023)
pIC50: −log10 of the molar value. “And” between values parts separate entries of the source, which are not always exact repeats. Equal entries are not always repeated. Where two headings read alike, the source gives them in different places.

Experiments:
PvNMT = PvNMT (Plasmodium vivax, UniProt A5K1A2); test: NMT activity assay (CPM detection of free CoA), PvNMT; conditions: for SI: enzyme selectivity, HsNMT IC50/PvNMT IC50
Chain of PvNMT (A5K1A2 entry or part of it): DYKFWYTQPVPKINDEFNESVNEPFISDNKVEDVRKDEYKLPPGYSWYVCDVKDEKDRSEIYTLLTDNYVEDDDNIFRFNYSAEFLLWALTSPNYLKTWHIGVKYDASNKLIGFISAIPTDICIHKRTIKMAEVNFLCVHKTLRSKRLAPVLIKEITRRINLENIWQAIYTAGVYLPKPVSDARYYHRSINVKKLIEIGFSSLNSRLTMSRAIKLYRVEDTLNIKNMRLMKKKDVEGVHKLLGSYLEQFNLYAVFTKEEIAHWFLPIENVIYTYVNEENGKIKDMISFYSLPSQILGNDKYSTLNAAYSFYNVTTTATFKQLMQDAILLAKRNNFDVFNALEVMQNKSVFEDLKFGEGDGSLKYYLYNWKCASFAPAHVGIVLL

HsNMT1 = target: T1, HsNMT1 (Homo sapiens, UniProt P30419); test: NMT activity assay (CPM detection of free CoA), HsNMT
T1 sequence (P30419 1-496): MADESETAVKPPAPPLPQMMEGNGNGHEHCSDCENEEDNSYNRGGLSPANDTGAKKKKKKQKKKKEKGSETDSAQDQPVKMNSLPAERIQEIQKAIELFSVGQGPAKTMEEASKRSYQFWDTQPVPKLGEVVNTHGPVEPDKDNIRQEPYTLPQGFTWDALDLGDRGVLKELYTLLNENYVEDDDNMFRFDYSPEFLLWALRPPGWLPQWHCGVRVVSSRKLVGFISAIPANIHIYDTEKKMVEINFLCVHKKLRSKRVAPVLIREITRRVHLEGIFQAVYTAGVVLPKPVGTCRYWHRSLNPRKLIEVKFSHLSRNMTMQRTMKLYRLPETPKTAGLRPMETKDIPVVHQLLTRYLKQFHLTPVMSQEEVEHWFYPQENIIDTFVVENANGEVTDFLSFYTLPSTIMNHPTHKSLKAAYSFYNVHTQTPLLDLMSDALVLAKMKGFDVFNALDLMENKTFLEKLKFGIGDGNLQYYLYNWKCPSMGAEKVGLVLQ

P. vivax schizonts = test: P. vivax liver stage assay, schizonts; type: cell-based, Plasmodium vivax; conditions: 20 µM; for Number of liverstage Schizonts per well: 8 dpi, listed as Pi4K
Experimental: We next evaluated the candidate compounds against liver-stage P. vivax (Fig. 5). P. vivax sporozoites were obtained from three independent patient isolates and cultured in primary human hepatocytes from a single donor lot using a 384-well microculture system as described previously. Cells were infected and treated with NMTis at 20 µM beginning day 5 post-infection until day 8 when the infection rates were quantified by fluorescent microscopy.
Accordingly, we applied dose–response curves of all the tested NMTs on parasite isolates 2 and 3 over concentrations up to 20 µM (Fig. 5c, d, Source Data file). We observed similar kinetics for all inhibitors, with a gradual decrease in parasite load upon increasing the drug concentration. […] Nuclei were counted in each well using DAPI staining as a measure of toxicity (Supplementary Fig. 86, Supplementary Source data). We used the phosphatidylinositol 4-kinase inhibitor (PI4Ki), MMV390048, as a positive control for eliminating schizonts[37],[38].
Plasmodium vivax liver stage assays were performed as described previously. Cryopreserved primary human hepatocytes (Cat No. F00995-P) and hepatocyte culture medium (HCM) (InVitroGroTM CP Medium) were obtained from Bioreclamation IVT, Inc., (Baltimore, MD, USA). Briefly, we seeded 384-well plates with primary hepatocytes from a single donor lot at a density of 25,000 cells per well. We then infected the hepatocytes with 14,000 freshly hand-dissected sporozoites per well. Cells were exposed to the compounds at indicated concentrations from day 5 post-infection. We used Pi4K inhibitor MMV390048, at 20 µM, as a positive control to eliminate P. vivax liver schizonts. We then proceeded to feed cultures every day, replacing the compounds until day 8 post-infection. Cells were fixed with 4% PFA, permeabilized with 1% Triton X-100, blocked with 2% BSA, and stained with DAPI and PvUIS4 antibodies to detect schizonts and hypnozoites forms by confocal microscopy. For antibody dilutions, PvUIS4 (kind gift from Dr. Noah Sather, Seattle Children’s Research Institute) was diluted 1:250 and the secondary antibody was anti-mouse AlexaFluor-594 (Cat # A-11005; RRID: AB_2534073) diluted 1:1000. DAPI was diluted 1:2000. The images were processed, analyzed and outlier cells were removed using IMARIS (Bitplane Inc.) image analysis software.

HepG2 cells = test: HepG2 cytotoxicity assay (Live/Dead staining); conditions: for Percentage of live HepG2 cells compared with diluent controls: replicates
Experimental: Therefore, we assessed cytotoxicity in the human hepatoma HepG2 cell line. We required a PvNMT to HsNMT SI > 20 for further screening. HepG2 cells were exposed to the compounds at concentrations ranging from 1 to 20 µM for […], and toxicity was assessed via live-dead staining.
The viability of the HepG2 cell line following exposure to the compounds was determined by a Live/Dead cell assay kit (Invitrogen). Briefly, cells were added to a 96-well plate at a concentration of 5000 cells per well, excluding the exterior wells. Cells were exposed to the compounds at different concentrations ranging from 1 to 20 µM. Cells were washed every 24 h and supplemented with fresh doses of compounds. At 72 h post-treatment, 1 µM calcein-AM and 1 µM ethidium homodimer were added to the wells and incubated for 10 min at 37 °C. After washing with PBS, the cells were visualized with fluorescent microscopy (Keyence BZ-X700).

[1] = PvNMT IC50, mean of two or more determinations
[2] = read-out: PvNMT IC50, mean of two or more determinations
[3] = read-out: HsNMT IC50, mean of two or more determinations

Cc1nn(C)c(C)c1CCOc1ccccc1-c1ccnc(N2CCNCC2)c1 [Compound 12c]
pIC50 (PvNMT; [1]): 8.02 | SI (PvNMT): 63.1 | pIC50 (HsNMT1): 6.22

c1cncc(CCOc2cccnc2-c2ccnc(N3CCNCC3)c2)c1 [Compound 12h]
pIC50 (PvNMT; [1]): 6.36

c1cncc(CCOc2ccccc2-c2cccc(N3CCNCC3)c2)c1 [Compound 12i]
pIC50 (PvNMT; [1]): 5.81

Fc1ccc(-c2cccc(N3CCNCC3)c2)c(OCCc2cccnc2)c1 [Compound 12k]
pIC50 (PvNMT; [1]): 5.51

Cc1n[nH]c(C)c1CCOc1cccnc1-c1cccc(N2CCNCC2)c1 [Compound 12m]
pIC50 (PvNMT; [1]): 4.90

Cc1n[nH]c(C)c1CCOc1ccccc1-c1ccnc(N2CCNCC2)c1 [Compound 12n]
pIC50 (PvNMT; [1]): 6.22 | SI (PvNMT): 65.7 | pIC50 (HsNMT1): 4.40

Cc1n[nH]c(C)c1CCOc1cccnc1-c1ccnc(N2CCNCC2)c1 [Compound 12o]
pIC50 (PvNMT; [2]): 5.51

Cc1n[nH]c(C)c1CCOc1cc(F)ccc1-c1cccc(N2CCNCC2)c1 [Compound 12p]
pIC50 (PvNMT; [1]): 6.43 | SI (PvNMT): 62.7 | pIC50 (HsNMT1): 4.64

Cc1nn(C)c(C)c1CCOc1ccccc1-c1cc(N2CCNCC2)ncn1 [Compound 16a]
pIC50 (PvNMT; [1]): 5.03

Cc1nn(C)c(C)c1CCOc1cc(F)ccc1-c1cc(N2CCNCC2)ncn1 [Compound 16b]
SI (PvNMT): 164 and 164.4 | pIC50 (PvNMT; [2]): 6.77 | pIC50 (HsNMT1; [3]): 4.56

Fc1ccc(-c2cc(N3CCNCC3)ncn2)c(OCCc2cccnc2)c1 [Compound 16d]
pIC50 (PvNMT; [1]): 5.47

Cc1n[nH]c(C)c1CCOc1cc(F)ccc1-c1cc(N2CCNCC2)ncn1 [Compound 16e]
pIC50 (PvNMT; [2]): 5.29

Cc1n[nH]c(C)c1CCOc1ccccc1-c1cc(N2CCNCC2)ncn1 [Compound 16f]
pIC50 (PvNMT; [1]): 4.85

Cc1nn(C)c(C)c1CCOc1cccnc1-c1cccc(OCCN(C)C)c1 [Compound 26a]
pIC50 (PvNMT; [1]): 6.58

CN(C)CCOc1cccc(-c2ncccc2OCCc2cccnc2)c1 [Compound 26d]
pIC50 (PvNMT; [1]): 4.83

CN(C)CCOc1cccc(-c2ccccc2OCCc2cccnc2)c1 [Compound 26e]
pIC50 (PvNMT; [1]): 4.89

CN(C)CCOc1cccc(-c2ccc(F)cc2OCCc2cccnc2)c1 [Compound 26f]
pIC50 (PvNMT; [2]): 6.21 | pIC50 (HsNMT1; [3]): < 4.40

Cc1n[nH]c(C)c1CCOc1cccnc1-c1cccc(OCCN(C)C)c1 [Compound 26g]
pIC50 (PvNMT; [1]): 4.71

Cc1n[nH]c(C)c1CCOc1ccccc1-c1cccc(OCCN(C)C)c1 [Compound 26h]
pIC50 (PvNMT; [1]): 5.81

Cc1nn(C)c(C)c1CCOc1ccc2ccccc2c1-c1cccc(OCCN(C)C)c1 [Compound 30b]
pIC50 (PvNMT; [1]): 4.70

CN(C)CCOc1cccc(-c2c(OCCc3cccnc3)ccc3ccccc23)c1 [Compound 30d]
pIC50 (PvNMT; [1]): 5.14

Cc1n[nH]c(C)c1CCOc1ccc2ccccc2c1-c1ccnc(N2CCNCC2)c1 [Compound 30e]
pIC50 (PvNMT; [1]): 5.54

Cc1n[nH]c(C)c1CCOc1ccc2ccccc2c1-c1cccc(OCCN(C)C)c1 [Compound 30f]
pIC50 (PvNMT; [1]): 4.60

CS(=O)(=O)c1ccc(-c2cnc(N)c(-c3ccc(C(F)(F)F)nc3)c2)cc1 [MMV390048, reference compound]
Number of liverstage Schizonts per well (P. vivax schizonts; isolate 2, technical replicates (Fig. 5b)): 0 per well and 1 per well (2×) | Number of liverstage Schizonts per well (P. vivax schizonts; isolate 3, technical replicates (Fig. 5b)): 2 per well and 1 per well | number of schizonts per well (in words) (P. vivax schizonts; positive control): dramatically reduced the number of schizonts per well

CN[C@@H]1C[C@H]2O[C@@](C)([C@@H]1OC)n1c3ccccc3c3c4c(c5c6ccccc6n2c5c31)C(=O)NC4 [staurosporine, Staurosporine, reference compound]
Percentage of live HepG2 cells compared with diluent controls (HepG2 cells; 1 μM): 95.8547% and 101.587% | Percentage of live HepG2 cells compared with diluent controls (HepG2 cells; 2.5 μM): 98.2188% and 92.7655% | Percentage of live HepG2 cells compared with diluent controls (HepG2 cells; 5 μM): 90.1576% and 84.8522% | Percentage of live HepG2 cells compared with diluent controls (HepG2 cells; 10 μM): 76.1985% and 71.2598% | Percentage of live HepG2 cells compared with diluent controls (HepG2 cells; 20 μM): 50.831% and 59.1843% | HepG2 cell viability (in words) (HepG2 cells; at 10–20 µM, positive control): reduced the cell viability
